Measured values: PMC12175894 (Science Advances, 2025)
“Also recorded” adds a separate entry of the source.

What was measured:
5-HT1AR wildtype [1] = target: T1, 5-HT1AR wildtype (Homo sapiens, UniProt P08908); experiment: GloSensor inhibition of cAMP accumulation in HEK293AΔGs; type: cell-based
T1 construct: host or cells: HEK293T, HEK293A, HEK293AΔGs, HEK293AΔGi/o, HEK293AΔARRB1/B2
T1 sequence (P08908 1-422): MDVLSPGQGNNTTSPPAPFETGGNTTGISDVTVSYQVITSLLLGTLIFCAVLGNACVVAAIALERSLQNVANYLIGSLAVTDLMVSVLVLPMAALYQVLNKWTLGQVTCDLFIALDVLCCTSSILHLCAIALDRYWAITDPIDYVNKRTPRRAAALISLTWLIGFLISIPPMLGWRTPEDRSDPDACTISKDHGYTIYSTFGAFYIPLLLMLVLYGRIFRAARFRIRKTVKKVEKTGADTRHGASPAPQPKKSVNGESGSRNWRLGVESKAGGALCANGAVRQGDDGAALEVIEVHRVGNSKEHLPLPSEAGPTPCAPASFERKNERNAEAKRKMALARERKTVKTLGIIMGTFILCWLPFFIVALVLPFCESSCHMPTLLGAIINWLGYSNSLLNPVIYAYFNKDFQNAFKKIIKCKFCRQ

5-HT1AR wildtype [2] = target: T1, 5-HT1AR wildtype; experiment: GloSensor cAMP accumulation in HEK293AΔGi/o; type: cell-based; conditions: for Emax: read-out: Emax [% ± SEM], cAMP accumulation
5-HT1AR wildtype [3] = target: T1, 5-HT1AR wildtype; experiment: β-arrestin 2 recruitment, enhanced bystander BRET in HEK293T with GRK2; type: cell-based; conditions: for Emax: HEK-293T, read-out: Emax [% ± SEM], β-arrestin 2 recruitment
5-HT1AR = target: T2, 5-HT1AR (Homo sapiens, UniProt P08908); experiment: BRET-based cAMP assay (CAMYEL biosensor) in CHO-K1 cells; type: cell-based; conditions: inhibition of cAMP accumulation, CAMYEL, fig. S1C, in words
T2 sequence (P08908 1-422): T1 sequence (P08908 1-422)

5-HT1AR wt = target: T3, 5-HT1AR wt (Homo sapiens, UniProt P08908); experiment: Radioligand competition, displacement of [3H]WAY100635; type: binding; conditions: fig. S1C, in words
T3 construct: host or cells: HEK293T, transient; membranes
T3 sequence (P08908 1-422): T1 sequence (P08908 1-422)

male C56BL/6 mice = experiment: 52°C hot plate; type: in vivo, mouse; conditions: wild-type mice, 10 mg/kg
5-HT1AR KO mice = experiment: 52°C hot plate in 5-HT1AR KO mice; type: in vivo, mouse; conditions: 10 mg/kg
[4] = Metabolic stability with rat liver microsomes; type: in vitro ADME; conditions: after 1 h incubation
[5] = target: human WT 5-HT1AR with C-terminal ARMS2-PK2 (human) (UniProt P08908); experiment: split reporter
[6] = read-out: Emax [% ± SEM], inhibition of cAMP accumulation

CCN(CC)C(=O)N[C@H]1C=C2c3cccc4[nH]cc(c34)C[C@H]2N(C)C1 [(S)-(-)lisuride, (S)-(−)-lisuride]
Emax [% ± SEM], inhibition of cAMP accumulation (5-HT1AR wildtype [1]; HEK293AΔGs, wildtype, relative to serotonin): 68 ± 4% | Emax [% ± SEM], cAMP accumulation (5-HT1AR wildtype [2]; HEK293AΔGi/o, wildtype, relative to serotonin): 29 ± 4% | Emax [% ± SEM], β-arrestin 2 recruitment (5-HT1AR wildtype [3]; HEK293T with GRK2, wildtype, relative to serotonin): 46 ± 3%

COc1ccccc1OCCCNCCCOc1ccc2c(c1)NC(=O)CO2 [TA12]
potency and efficacy / receptor activation relative to ST171 (SAR study) (5-HT1AR): attenuation of binding and receptor activation | 5-HT1AR binding relative to ST171 (SAR study) (5-HT1AR wt): reduced binding affinity; also recorded: attenuation of binding

CSc1ccccc1OCCNCCCOc1ccc2c(c1)NC(=O)CO2 [TA48]
potency and efficacy / receptor activation relative to ST171 (SAR study) (5-HT1AR): considerable reduction of potency and efficacy

O=C1CCc2ccc(OCCCCN3CCN(c4cccc(Cl)c4Cl)CC3)cc2N1 [aripiprazole]
Emax (5-HT1AR wildtype [1]; read-out: Emax [% ± SEM], inhibition of cAMP accumulation, HEK293AΔGs, wildtype, relative to serotonin): 90 ± 9% | Emax (5-HT1AR wildtype [2]): < 5%

O=C1CC2(CCCC2)CC(=O)N1CCCCN1CCN(c2ncccn2)CC1 [buspirone]
Emax (5-HT1AR wildtype [1]; [6]): 58 ± 1% | Emax (5-HT1AR wildtype [2]): < 5% | Emax (5-HT1AR wildtype [3]): < 5%

CN1CC[C@]23c4c5ccc(O)c4O[C@H]2[C@@H](O)C=C[C@H]3[C@H]1C5 [morphine]
response latency, 52°C hot plate (male C56BL/6 mice): significantly increased the response latency | response latency, hot plate in 5-HT1AR KO mice (5-HT1AR KO mice): significantly increased the response latency

CCCN(CCc1cccs1)[C@H]1CCc2c(O)cccc2C1 [rotigotine, reference compound]
intact substrate remaining [4]: < 15%

O=C1Cc2cc(CCN3CCN(c4nsc5ccccc45)CC3)c(Cl)cc2N1 [ziprasidone]
lower potency compared to ST171, Gi/o pathway (5-HT1AR wildtype [1]; HEK293AΔGs): more than 70 fold | EC50 (5-HT1AR wildtype [1]; HEK293AΔGs, wildtype, read-out: EC50 [nM ± SEM], inhibition of cAMP accumulation): 370 ± 140 nM | Emax (5-HT1AR wildtype [1]; [6]): 57 ± 7% | Emax (5-HT1AR wildtype [2]): < 5% | Emax (5-HT1AR wildtype [3]): < 5%

β-arrestin 2 labeled with the enzyme acceptor (from UniProt P32121 1-409) (natural protein)
Emax of recruitment with ST171, elevated GRK2 (% of serotonin) [5]: 15% | Emax of recruitment with ST171, native GRK2 (% of serotonin) [5]: < 5%
